Reference: ChEMBL document CHEMBL5223132, “Structure-activity relationships of mixed σ1R/σ2R ligands with antiproliferative and anticancer effects” (Bioorg Med Chem, 2022)
Blank lines part the entries; values can stand above or below the compound they belong to.

How the values were obtained:
[1] = molecular target: T1, Sigma intracellular receptor 2 (Rattus norvegicus, UniProt Q5U3Y7); assay: Displacement of [3H]DTG from sigma 2 receptor expressed in rat liver membranes assessed as inhibition constant in presence of (+)-pentazocine by radioligand binding assay; format: cell membranes, Membrane
T1 sequence (Q5U3Y7 whole entry): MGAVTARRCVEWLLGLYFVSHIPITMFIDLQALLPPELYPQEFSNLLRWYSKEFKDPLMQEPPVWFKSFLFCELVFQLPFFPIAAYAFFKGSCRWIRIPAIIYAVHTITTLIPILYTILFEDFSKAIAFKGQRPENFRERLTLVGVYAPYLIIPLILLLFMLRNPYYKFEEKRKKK

[2] = molecular target: ATP-dependent translocase ABCB1 (Homo sapiens, UniProt P08183); assay: Inhibition of P-gp transporter (unknown origin) expressed in dog MDCK-MDR1 assessed as inhibition of fluorescent Calcein-AM transport by fluorescence based assay; format: cell-based
Sequence of ATP-dependent translocase ABCB1 (P08183 whole entry): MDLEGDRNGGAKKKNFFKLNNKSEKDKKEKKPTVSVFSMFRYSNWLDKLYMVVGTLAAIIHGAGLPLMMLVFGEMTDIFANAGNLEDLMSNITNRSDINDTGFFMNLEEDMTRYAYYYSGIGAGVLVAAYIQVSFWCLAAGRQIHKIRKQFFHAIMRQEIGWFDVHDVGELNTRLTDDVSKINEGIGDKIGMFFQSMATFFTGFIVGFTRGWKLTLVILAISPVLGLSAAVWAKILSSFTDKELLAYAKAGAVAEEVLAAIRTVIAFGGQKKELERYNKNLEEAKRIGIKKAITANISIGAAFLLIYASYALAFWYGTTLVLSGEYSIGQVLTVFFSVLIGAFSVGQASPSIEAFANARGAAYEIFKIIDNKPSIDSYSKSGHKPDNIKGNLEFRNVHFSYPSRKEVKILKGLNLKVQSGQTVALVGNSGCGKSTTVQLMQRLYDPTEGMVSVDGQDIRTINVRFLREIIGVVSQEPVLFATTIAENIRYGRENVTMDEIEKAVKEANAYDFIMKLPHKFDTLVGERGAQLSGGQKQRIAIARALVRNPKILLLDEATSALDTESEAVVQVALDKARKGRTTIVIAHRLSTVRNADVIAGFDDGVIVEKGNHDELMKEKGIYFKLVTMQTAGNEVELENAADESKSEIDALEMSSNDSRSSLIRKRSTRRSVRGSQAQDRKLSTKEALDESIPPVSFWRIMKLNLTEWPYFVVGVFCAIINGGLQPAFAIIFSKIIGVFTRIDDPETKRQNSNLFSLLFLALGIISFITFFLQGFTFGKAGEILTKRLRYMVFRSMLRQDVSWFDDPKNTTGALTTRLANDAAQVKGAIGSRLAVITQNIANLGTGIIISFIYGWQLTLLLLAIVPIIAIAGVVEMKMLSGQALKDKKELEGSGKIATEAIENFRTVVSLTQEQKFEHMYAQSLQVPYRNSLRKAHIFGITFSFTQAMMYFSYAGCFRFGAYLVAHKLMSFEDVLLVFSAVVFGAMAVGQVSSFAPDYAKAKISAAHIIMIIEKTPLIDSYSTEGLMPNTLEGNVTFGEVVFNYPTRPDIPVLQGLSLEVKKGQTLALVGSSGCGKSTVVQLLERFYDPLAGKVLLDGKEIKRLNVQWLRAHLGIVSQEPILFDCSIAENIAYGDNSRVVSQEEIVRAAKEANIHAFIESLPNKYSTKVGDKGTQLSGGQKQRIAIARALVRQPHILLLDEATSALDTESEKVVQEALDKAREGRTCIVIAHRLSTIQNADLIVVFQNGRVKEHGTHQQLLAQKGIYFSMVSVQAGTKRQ

[3] = molecular target: T2, Sigma non-opioid intracellular receptor 1 (Cavia porcellus, UniProt Q60492); assay: Displacement of [3H]pentazocine from sigma 1 receptor expressed in guinea pig brain membranes assessed as inhibition constant by radioligand binding assay; format: cell membranes, Membrane
T2 sequence (Q60492 whole entry): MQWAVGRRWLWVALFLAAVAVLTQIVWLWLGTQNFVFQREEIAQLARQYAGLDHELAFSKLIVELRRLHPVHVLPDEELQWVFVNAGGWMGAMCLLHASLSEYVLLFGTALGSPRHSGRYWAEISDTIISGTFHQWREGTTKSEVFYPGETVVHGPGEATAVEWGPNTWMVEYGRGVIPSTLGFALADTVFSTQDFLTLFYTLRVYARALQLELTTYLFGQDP

[4] = test system: SK-N-SH; assay: Antiproliferative activity against human SK-N-SH cells assessed as reduction in cell viability incubated for 48 hrs by MTT assay; format: functional, cell-based
[5] = test system: PC-3; assay: Antiproliferative activity against human PC-3 cells assessed as reduction in cell viability incubated for 48 hrs by MTT assay; format: functional, cell-based; conditions: PC-3, 48 h
[6] = molecular target: T3, Sigma intracellular receptor 2 (Homo sapiens, UniProt Q5BJF2); assay: Binding affinity to human sigma 2 receptor
T3 sequence (Q5BJF2 whole entry): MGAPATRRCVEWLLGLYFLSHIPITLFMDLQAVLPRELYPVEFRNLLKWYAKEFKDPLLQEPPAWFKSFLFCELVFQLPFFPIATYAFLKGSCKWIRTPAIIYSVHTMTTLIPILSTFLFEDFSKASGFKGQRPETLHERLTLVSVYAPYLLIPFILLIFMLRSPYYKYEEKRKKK

[7] = molecular target: T4, Sigma non-opioid intracellular receptor 1 (Homo sapiens, UniProt Q99720); assay: Binding affinity to sigma 1 receptor (unknown origin)
T4 sequence (Q99720 whole entry): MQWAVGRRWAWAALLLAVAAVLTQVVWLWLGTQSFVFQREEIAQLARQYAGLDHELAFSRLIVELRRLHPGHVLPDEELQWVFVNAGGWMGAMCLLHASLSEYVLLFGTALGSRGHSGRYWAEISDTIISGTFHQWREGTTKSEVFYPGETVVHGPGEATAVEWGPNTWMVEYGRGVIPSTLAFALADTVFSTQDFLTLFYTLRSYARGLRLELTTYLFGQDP

[8] = molecular target: T3, Sigma intracellular receptor 2; assay: Binding affinity to sigma 2 receptor (unknown origin)
[9] = test system: MCF7; assay: Antiproliferative activity against human MCF7 cells assessed as reduction in cell viability; format: functional, cell-based
[10] = test system: A-427; assay: Antiproliferative activity against human A-427 cells assessed as reduction in cell viability; format: functional, cell-based
[11] = test system: 5637; assay: Antiproliferative activity against human 5637 cells assessed as reduction in cell viability; format: functional, cell-based
[12] = molecular target: T3, Sigma intracellular receptor 2; assay: Binding affinity to sigma 2 receptor (unknown origin) expressed in human RT-4 cells; format: cell-based
[13] = molecular target: T1, Sigma intracellular receptor 2; assay: Binding affinity to sigma 2 receptor expressed in rat liver; format: tissue-based
[14] = molecular target: T3, Sigma intracellular receptor 2; assay: Displacement of [H3]DTG from sigma 2 receptor (unknown origin) by competition binding assay
[15] = molecular target: T4, Sigma non-opioid intracellular receptor 1; assay: Binding affinity to human sigma 1 receptor
[16] = molecular target: T1, Sigma intracellular receptor 2; assay: Displacement of [3H]DTG from sigma 2 receptor expressed in rat liver membranes assessed as inhibition constant incubated for 120 mins in presence of (+)-SKF10047 by radioligand binding assay; format: cell membranes, Membrane
[17] = molecular target: T2, Sigma non-opioid intracellular receptor 1; assay: Displacement of [3H]pentazocine from sigma 1 receptor expressed in guinea pig brain membranes assessed as inhibition constant incubated for 150 mins by radioligand binding assay; format: cell membranes, Membrane
[18] = test system: SK-MEL-28; assay: Anti-proliferative against human SK-MEL-28 cells assessed as reduction in cell viability incubated for 48 hrs by MTT assay; format: functional, cell-based; conditions: SK-MEL-28, 48 h
[19] = test system: SK-MEL-28; assay: Anti-proliferative against human SK-MEL-28 cells assessed as reduction in cell viability incubated for 24 hrs by MTT assay; format: functional, cell-based; conditions: SK-MEL-28, 24 h
[20] = test system: MDA-MB-231; assay: Anti-migratory activity against human MDA-MB-231 cells assessed as reduction in cell migration at 10 uM and measured after 12 hrs by wound healing assay; format: functional; set-up: scale not given: the % may be the effect or the level left
[21] = test system: MDA-MB-231; assay: Anti-invasive activity against human MDA-MB-231 cells assessed as decrease in cell invasion at 10 uM incubated for 24 hrs by 3D spheroid invasion assay; format: functional; set-up: scale not given: the % may be the effect or the level left
[22] = molecular target: T4, Sigma non-opioid intracellular receptor 1; assay: Displacement of [H3]DTG from sigma 1 receptor (unknown origin) by competition binding assay
[23] = Binding affinity to human sigma 1 receptor

Ki [7]: 23.9 nM
Ki [8]: 2 nM
SMILES: COc1cc2c(cc1OC)CN(CCCCNC(=O)c1cc(C)ccc1OCC[18F])CC2

IC50 [9]: 8.83 µM
Ki [12]: 43 nM
Ki [13]: 73 nM
SMILES: OCC[C@H]1CN(CC2CCCCC2)CCN1Cc1ccc(-c2ccccc2)cc1
IC50 [10]: 9.25 µM
IC50 [11]: 10.5 µM

IC50 [9]: > 20 µM
Ki [12]: 39 nM
Ki [13]: 38 nM
SMILES: OCC[C@@H]1CN(CC2CCCCC2)CCN1Cc1ccc(-c2ccccc2)cc1
IC50 [10]: 3.46 µM
IC50 [11]: 6.57 µM

Ki [6]: 1380 nM
Ki [15]: 0.08 nM
SMILES: CCCN1CCC=C(c2cc(-c3ccc(C)cc3)no2)C1

Ki [6]: 25.2 nM
Ki [23]: 1.7 nM
SMILES: O=C(NC1CCN(Cc2ccccc2)CC1)c1ccc(I)cc1

Ki [1]: 285 nM
Ki [3]: 16 nM
SMILES: CCCCCCCNCCC1CCN(C)C(c2ccccc2)C1 (configuration not stated)

Second part, the compound before the results:

SMILES: Fc1cccc(F)c1[C@H]1CC[C@@H](N2CCN(C3CCCCC3)CC2)CC1
Ki [1]: 14.1 nM
EC50 [2]: 7.3 µM
Ki [3]: 0.63 nM
EC50 [4]: 12.1 µM
EC50 [5]: 40.6 µM

SMILES: CCCN(CCC)CCc1ccc(OC)c(OCCc2ccccc2)c1
Ki [6]: 170 nM

SMILES: O=c1sc2cc(CCCF)ccc2n1CCN1CCCCCC1
Ki [7]: 0.0025 nM

SMILES: O=C(OCCN1CCOCC1)C1(c2ccccc2)CCCCC1
Ki [6]: 32100 nM

SMILES: COc1ccc(C)cc1NC(=O)OC1CC2CCCC(C1)N2CCCCCCCCCCN (configuration not stated)
Ki [14]: 7.7 nM

SMILES: c1ccc(CC2CCN(CC3CSC4(CCCCC4)S3)CC2)cc1 (configuration not stated)
Ki [16]: 19.5 nM
Ki [17]: 537 nM
IC50 [18]: 22 µM
IC50 [19]: 52 µM

SMILES: O=C(CCCN1CCCN(c2ccc(Cl)cc2)CC1)c1ccc(F)cc1
Activity [20]: 95%
Activity [21]: 49%

SMILES: CCN(C/C=C\c1ccc(C2CCCCC2)c(Cl)c1)C1CCCCC1
Ki [22]: 2 nM
IC50 [14]: 45 nM

SMILES: CCN(CC)CCNC(=O)c1ccc(OC)c([123I])c1
Ki [7]: 11.8 nM
Ki [8]: 206 nM
